Reference: the NIST ThermoML archive (doi:10.1016/j.fluid.2014.09.016)
Numbers after ± are expanded uncertainties.

Conditions: 298.15 K; 101.33 kPa; Liquid; Pycnometric method

COP(=O)([O-])OC.Cn1cc[n+](C)c1 [1,3-dimethylimidazolium dimethylphosphate]
mass density: 1257.8 ± 1.6 kg/m3

CCOP(=O)([O-])OCC.CCn1cc[n+](C)c1 [1-ethyl-3-methylimidazolium diethyl phosphate]
mass density: 1146.1 ± 1.4 kg/m3
